Assay results taken from PubChem BioAssay AID328 (DTP/NCI, 2004).
Where “and” joins values, the source holds several entries; their conditions need not be identical. Identical values can stand only once. Inconclusive results and toxic doses are left out.

Tested on: BDF1 mice, P388 leukemia ip, median survival T/C
Assay: NCI In Vivo Anticancer Drug Screen. Data for tumor model P388 Leukemia (intraperitoneal) in B6D2F1 (BDF1) mice
Details: endpoint: median survival time, higher = longer survival
How it was run: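 Mice carrying the transplantable tumour receive compound or vehicle. Survival is followed in each arm, and the treated measure is divided by the vehicle measure.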

[1] = dose: 50.0 mg/kg/injection, schedule: Q01DX009 (ip), vehicle: saline with Tween-80
[2] = dose: 100.0 mg/kg/injection, schedule: Q01DX009 (ip), vehicle: saline with Tween-80
[3] = dose: 100.0 mg/kg/injection, schedule: Q04DX003 (ip), vehicle: Klucel (hydroxypropylcellulose) (HPC)
[4] = dose: 100.0 mg/kg/injection, schedule: Q04DX003 (ip), vehicle: saline with Tween-80
[5] = dose: 200.0 mg/kg/injection, schedule: Q04DX003 (ip), vehicle: saline with Tween-80
[6] = dose: 200.0 mg/kg/injection, schedule: Q01DX009 (ip), vehicle: saline with Tween-80
[7] = dose: 100.0 mg/kg/injection, schedule: Q01DX009 (ip), vehicle: Klucel (hydroxypropylcellulose) (HPC)
[8] = dose: 400.0 mg/kg/injection, schedule: Q01DX009 (ip), vehicle: saline with Tween-80
[9] = dose: 50.0 mg/kg/injection, schedule: Q01DX009 (ip), vehicle: saline
[10] = dose: 100.0 mg/kg/injection, schedule: Q01DX009 (ip), vehicle: saline
[11] = dose: 200.0 mg/kg/injection, schedule: Q01DX009 (ip), vehicle: saline
[12] = dose: 400.0 mg/kg/injection, schedule: Q01DX009 (ip), vehicle: saline
[13] = dose: 100.0 mg/kg/injection, schedule: Q04DX003 (ip), vehicle: saline
[14] = dose: 200.0 mg/kg/injection, schedule: Q04DX003 (ip), vehicle: saline
[15] = dose: 12.5 mg/kg/injection, schedule: Q01DX009 (ip), vehicle: saline with Tween-80
[16] = dose: 25.0 mg/kg/injection, schedule: Q01DX009 (ip), vehicle: saline with Tween-80

Compound: CCCCCCCCCCCCOP(N)(=O)OCCCCCCCCCCCC
- T/C (dose: 10.0 mg/kg/injection, schedule: Q01DX009 (ip), vehicle: Klucel (hydroxypropylcellulose) (HPC)): 103 % of control
- T/C (dose: 20.0 mg/kg/injection, schedule: Q01DX009 (ip), vehicle: Klucel (hydroxypropylcellulose) (HPC)): 106 % of control
- T/C (dose: 40.0 mg/kg/injection, schedule: Q01DX009 (ip), vehicle: Klucel (hydroxypropylcellulose) (HPC)): 106 % of control
- T/C [1]: 109 % of control
- T/C [2]: 113 % of control
- T/C [3]: 105 % of control
- T/C [4]: 109 % of control
- T/C (dose: 200.0 mg/kg/injection, schedule: Q04DX003 (ip), vehicle: Klucel (hydroxypropylcellulose) (HPC)): 97 % of control
- T/C [5]: 109 % of control
- T/C (dose: 400.0 mg/kg/injection, schedule: Q04DX003 (ip), vehicle: Klucel (hydroxypropylcellulose) (HPC)): 121 % of control

Compound: [Cl][Cr]([Cl])[Cl].[NH-]CC[N-]CC[NH-]
- T/C [1]: 116 % of control
- T/C [2]: 100 % of control
- T/C [6]: 100 % of control

Compound: O=[N+]([O-])c1ccc2[nH]c3c(c2c1)CSCC3
- T/C [1]: 100 % of control
- T/C [7]: 100 % of control
- T/C [2]: 96 % of control
- T/C [4]: 109 % of control
- T/C (dose: 200.0 mg/kg/injection, schedule: Q01DX009 (ip), vehicle: Klucel (hydroxypropylcellulose) (HPC)): 90 % of control
- T/C [5]: 107 % of control
- T/C (dose: 400.0 mg/kg/injection, schedule: Q01DX009 (ip), vehicle: Klucel (hydroxypropylcellulose) (HPC)): 86 % of control
- T/C [8]: 91 % of control
- T/C (dose: 400.0 mg/kg/injection, schedule: Q04DX003 (ip), vehicle: saline with Tween-80): 110 % of control

Compound: Cc1cc(Nc2cccc(Cl)c2)cc(=O)[nH]1
- T/C (dose: 50.0 mg/kg/injection, schedule: Q01DX001 (ip), vehicle: saline with Tween-80): 113 % of control
- T/C (dose: 100.0 mg/kg/injection, schedule: Q01DX001 (ip), vehicle: saline with Tween-80): 100 % of control
- T/C (dose: 200.0 mg/kg/injection, schedule: Q01DX001 (ip), vehicle: saline with Tween-80): 98 % of control

Compound: Cc1ncc(O)c(CO)c1O
- T/C [9]: 110 % of control
- T/C [10]: 94 % of control
- T/C [11]: 99 % of control
- T/C [12]: 107 % of control

Compound: CC(/C=C/c1ccccc1)=N\O
- T/C (dose: 100.0 mg/kg/injection, schedule: Q04DX003 (ip), vehicle: saline sonified): 90 % of control
- T/C (dose: 200.0 mg/kg/injection, schedule: Q04DX003 (ip), vehicle: saline sonified): 90 % of control
- T/C (dose: 400.0 mg/kg/injection, schedule: Q04DX003 (ip), vehicle: saline sonified): 90 % of control

Compound: CC1CCC2(CC1)NC(=O)N(CNc1ccccc1)C2=O (stereo unspecified)
- T/C (dose: 50.0 mg/kg/injection, schedule: Q04DX003 (ip), vehicle: saline with Tween-80): 100 % of control
- T/C [4]: 87 % of control
- T/C [5]: 100 % of control

Compound: OCCNCc1ccc2ccccc2n1
- T/C [13]: 100 % of control
- T/C [14]: 100 % of control

Compound: CCCC(=O)c1cc(O)c(O)cc1O
- T/C [15]: 95 % of control
- T/C [16]: 104 % of control
- T/C [1]: 106 % of control

Compound: [CH3][Hg][O]C(C)=O
- T/C (dose: 3.12 mg/kg/injection, schedule: Q01DX009 (ip), vehicle: Klucel (hydroxypropylcellulose) (HPC)): 107 % of control
- T/C (dose: 6.25 mg/kg/injection, schedule: Q01DX009 (ip), vehicle: Klucel (hydroxypropylcellulose) (HPC)): 113 % of control

Compound: CCOC(=O)C1(C)C=C(Nc2ccc(OC)cc2)C(=O)N1c1ccc(OC)cc1 (stereo unspecified)
- T/C (dose: 6.25 mg/kg/injection, schedule: Q01DX009 (ip), vehicle: saline with Tween-80): 104 % of control
- T/C [15]: 100 % of control
- T/C [16]: 100 % of control
- T/C [1]: 95 % of control

Compound: O=C(O)C1C(C(=O)O)C2(Cl)C(Cl)=C(Cl)C1(Cl)C2(Cl)Cl.[Cu+2] (stereo unspecified)
- T/C (dose: 12.5 mg/kg/injection, schedule: Q01DX009 (ip), vehicle: saline sonified): 100 % of control
- T/C (dose: 25.0 mg/kg/injection, schedule: Q01DX009 (ip), vehicle: saline sonified): 110 % of control

Compound: O=C(/C=C(\CN1CCCCC1)c1ccccc1)c1ccccc1
- T/C (dose: 25.0 mg/kg/injection, schedule: Q01DX009 (ip), vehicle: Klucel (hydroxypropylcellulose) (HPC)): 100 % of control
- T/C (dose: 25.0 mg/kg/injection, schedule: Q04DX003 (ip), vehicle: Klucel (hydroxypropylcellulose) (HPC)): 91 % of control
- T/C (dose: 50.0 mg/kg/injection, schedule: Q01DX009 (ip), vehicle: Klucel (hydroxypropylcellulose) (HPC)): 104 % of control
- T/C (dose: 50.0 mg/kg/injection, schedule: Q04DX003 (ip), vehicle: Klucel (hydroxypropylcellulose) (HPC)): 104 % of control
- T/C [7]: 109 % of control
- T/C [3]: 108 % of control

Compound: Sc1ccccc1-n1c(-c2ccccc2)ccc1-c1ccccc1
- T/C [1]: 101 % of control
- T/C [2]: 88 % of control
- T/C [6]: 87 % of control
- T/C [8]: 102 % of control

Compound: CC1(C)N=C(N)N=C(N)N1c1cccc(Cl)c1
- T/C (dose: 1.9 mg/kg/injection, schedule: Q04DX003 (ip), vehicle: saline): 104 % of control
- T/C (dose: 2.9 mg/kg/injection, schedule: Q04DX003 (ip), vehicle: saline): 100 % of control
- T/C (dose: 10.0 mg/kg/injection, schedule: Q04DX003 (ip), vehicle: saline): 113 % of control
- T/C (dose: 18.0 mg/kg/injection, schedule: Q01DX009 (ip), vehicle: saline): 195 % of control
- T/C (dose: 18.7 mg/kg/injection, schedule: Q01DX009 (ip), vehicle: saline): 168 % of control
- T/C (dose: 28.0 mg/kg/injection, schedule: Q01DX009 (ip), vehicle: saline): 160 % of control and 209 % of control
- T/C (dose: 37.5 mg/kg/injection, schedule: Q04DX003 (ip), vehicle: saline): 175 % of control and 177 % of control
- T/C (dose: 40.0 mg/kg/injection, schedule: Q01DX009 (ip), vehicle: saline): 95 % of control
- T/C (dose: 42.0 mg/kg/injection, schedule: Q01DX009 (ip), vehicle: saline): 213 % of control
- T/C (dose: 56.25 mg/kg/injection, schedule: Q04DX003 (ip), vehicle: saline): 150 % of control

Compound: COc1cccc2ccc(CC(O)(c3ccccc3)c3ccccc3)nc12
- T/C [16]: 91 % of control
- T/C [1]: 100 % of control
- T/C [2]: 100 % of control

Compound: CC1(C)c2ccccc2C(=O)C1Cc1ccccc1 (stereo unspecified)
- T/C [9]: 93 % of control
- T/C (dose: 50.0 mg/kg/injection, schedule: Q04DX003 (ip), vehicle: saline): 109 % of control
- T/C [10]: 98 % of control
- T/C [13]: 119 % of control
- T/C [11]: 121 % of control
- T/C [14]: 119 % of control
- T/C [12]: 119 % of control
- T/C (dose: 400.0 mg/kg/injection, schedule: Q04DX003 (ip), vehicle: saline): 109 % of control

Compound: CCN1/C(=C/C=C/c2oc3ccccc3[n+]2CC)Oc2ccccc21
- T/C (dose: 0.13 mg/kg/injection, schedule: Q01DX010 (ip), vehicle: saline): 118 % of control
- T/C (dose: 0.15 mg/kg/injection, schedule: Q01DX009 (ip), vehicle: saline): 108 % of control
- T/C (dose: 0.25 mg/kg/injection, schedule: Q01DX010 (ip), vehicle: saline): 118 % of control
- T/C (dose: 0.6 mg/kg/injection, schedule: Q01DX009 (ip), vehicle: Klucel (hydroxypropylcellulose) (HPC)): 165 % of control
- T/C (dose: 37.5 micrograms/kg/injection, schedule: Q01DX009 (ip), vehicle: Klucel (hydroxypropylcellulose) (HPC)): 108 % of control
- T/C (dose: 75.0 micrograms/kg/injection, schedule: Q01DX009 (ip), vehicle: Klucel (hydroxypropylcellulose) (HPC)): 104 % of control
- T/C (dose: 150.0 micrograms/kg/injection, schedule: Q01DX009 (ip), vehicle: Klucel (hydroxypropylcellulose) (HPC)): 116 % of control

Compound: CCCCCC[C@@H](O)[C@@H]1C2=C(C[C@H]([C@H](O)[C@@H]3CC=CC(=O)O3)CC3=C(C(=O)OC3=O)[C@@H]1O)C(=O)OC2=O
- T/C (dose: 0.12 mg/kg/injection, schedule: Q01DX009 (ip), vehicle: saline): 107 % of control
- T/C (dose: 0.25 mg/kg/injection, schedule: Q01DX009 (ip), vehicle: saline): 109 % of control
- T/C (dose: 0.5 mg/kg/injection, schedule: Q01DX009 (ip), vehicle: saline): 107 % of control
- T/C (dose: 1.0 mg/kg/injection, schedule: Q01DX009 (ip), vehicle: saline): 119 % of control

Compound: COCc1cnc2nc(N)nc(N)c2n1
- T/C (dose: 3.13 mg/kg/injection, schedule: Q01DX009 (ip), vehicle: other): 116 % of control
